Laboratory results taken from patent publication US10111822B2, “External dermal composition for anti-ageing and method for producing the same” (Hayashibara Co., Ltd., priority 2012, dated 2018).

Experiments:
Assay type in all cases: cell-based, human
glutathione [1] = experiment: Production level of glutathione in A431 cells; settings: 1 mM, 24 h, control = 100%
Procedure: To Dulbecco's MEM medium, containing 10% v/v calf fetal serum and an antibiotic (abbreviated as “D-MEM”, hereinafter), were added ascorbic acid 2-glucoside, a reagent grade specimen commercialized by Hayashibara Co., Ltd., Okayama, Japan, or L-ascorbic acid, a special reagent grade specimen commercialized by Wako Pure Chemical Industries, Ltd., Tokyo, Japan, […]
Continuously-cultivated A431 cells in D-MEM medium were collected, resuspended in D-MEM medium, inoculated to culture plates with 10 cm in diameter (φ) in an amount of 1×10^6 cells/10 mL/plate, and cultured for 24 hours. Thereafter, the culture supernatants were removed by sucking, and the remaining cells were added with any of the test solutions in an amount of 10 mL/plate and cultured for another 24 hours. As a control, cells were added with only D-MEM medium in an amount of 10 mL/plate and cultured for 24 hours. To each plate, which had been removed its culture supernatant, was added ice-chilled Dulbecco's PBS (−) commercialized by Nissui Pharmaceutical Co., Ltd., Tokyo, Japan, to wash cells, which were then collected with a scraper. Glutathione was quantified with “Glutathione Assay Kit”, a commercially available glutathione assay kit commercialized by BioVision, Inc., San Francisco, USA. In this experiment, the control and test solutions were respectively assayed by using three plates respectively, and the data were averaged for obtaining a glutathione production level for each plate. A5% v/v CO2 incubator was used for culturing A431 cells in any case. Relative values of test samples were determined with the proviso that the production levels of reduced glutathione and total glutathione levels in A431 cells that had been cultured with only D-MEM medium were respectively regarded as 100%, and the results are in Table 4.

cornified envelope (CE) = experiment: Production of cornified envelope (CE) in NHEK cells; settings: 5 days, control 0.63 ± 0.07
Procedure: The following experiment was conducted to examine the effect of ascorbic acid 2-glucoside on the production of CE in a keratinous layer. As a model for typical normal human epidermal cells, normal human epidermal keratinocytes from neonatal foreskin, commercialized by Kurabo Industries Ltd., Osaka, Japan, and abbreviated as “NHEK cells”, hereinafter, were suspended in EpiLife medium (pH 7.4), commercialized by Invitrogen Corporation, Calif., USA, and called “EpiLife medium”, hereinafter, inoculated to 12-well microplates at a cell density of 1×10^5 cells/well, and cultured under the conditions of 37° C. and 5% v/v CO2 overnight. Thereafter, “AA2G”, a product name of a particulate composition containing anhydrous crystalline ascorbic acid 2-glucoside, commercialized by Hayashibara Co., Ltd., Okayama, Japan, was added to each well to give a final concentration of 0.5 or 1 mM, or, as a positive control, CaCl2 was added to each well to give a final concentration of 1 mM; and the cells in each well were cultured at 37° C. for five days while replacing the medium in each well with a fresh preparation of EpiLife medium having the above-identified concentration of ascorbic acid 2-glucoside or CaCl2. Assay for intracellular CE content was carried out in accordance with Tatsuya Hasegawa et al., “Lipids”, Vol. 46, pp. 529 to 535, 2011. After completion of the culture, the culture supernatant in each well was immediately removed, followed by detaching and extracting the cells adhered to the wall of each well by means of pipetting with phosphate buffered saline (PBS, pH 7.4) containing 2% w/v sodium dodecyl sulfate (SDS), and collecting insoluble fractions by centrifugation at 15,000 rpm for 10 min. […] The measured values were regarded as CE production levels. […]

glutathione [2] = experiment: Production level of glutathione in NHEK cells; settings: 24 h, control = 100%
Procedure: Continuously-cultivated NHEK cells in EpiLife medium were collected, resuspended in EpiLife medium, inoculated to culture plates with 10 cm in diameter in an amount of 1×10^6 cells/10 mL/plate, and cultured for 24 hours. Thereafter, each culture supernatant was removed by sucking, and any of the test solutions was added to the remaining cells in a volume of 10 mL/plate, followed by culturing the cells for another 24 hours. As a control, cells were added with only D-MEM medium in an amount of 10 mL/plate and cultured for 24 hours. Each culture supernatant was removed from each plate, then ice-chilled Dulbecco's PBS (−), commercialized by Nissui Pharmaceutical Co., Ltd., Tokyo, Japan, was added to rinse the remaining cells, which were then collected with a scraper. Glutathione was quantified on “Glutathione Assay Kit”, a product name of glutathione assay kit commercialzied by BioVision, Inc., San Francisco, USA. In this experiment, the control and test solutions in respective three plates were assayed for glutathione production level for each plate and averaged for obtaining the glutathione production level of each solution. A 5% v/v CO2 incubator was used for culturing NHEK cells in any case. Relative values of test samples were determined with the proviso that the production levels of reduced glutathione and total glutathione in NHEK cells that had been cultured with only EpiLife medium were respectively regarded as 100%, and the results are in Table 5.

## O=C1O[C@H]([C@@H](O)CO)C(O)=C1O[C@H]1O[C@H](CO)[C@@H](O)[C@H](O)[C@H]1O [ascorbic acid 2-glucoside, 2-O-α-D-glucosyl-L-ascorbic acid]
Glutathione [1]
  Total glutathione: 106%
Cornified envelope (CE); 0.5 mM
  OD310nm Value (CE Production level): 0.78 ± 0.05
Cornified envelope (CE); 1 mM
  OD310nm Value (CE Production level): 1.04 ± 0.11
Glutathione [2]; 0.5 mM
  Reduced glutathione: 106%
  Total glutathione: 106%
Glutathione [2]; 1.0 mM
  Reduced glutathione: 111%
  Total glutathione: 111%
Glutathione [2]; 2.0 mM
  Reduced glutathione: 117%
  Total glutathione: 117%
